Measured values reported in patent US10016382B2, “Method for decreasing skeletal muscle damage and/or oxidative stress in mammals” (LONZA INC., priority 2014, dated 2018).

Experiments:
Type in all cases: in vivo, dog
[1] = system: Thiobarbituric acid reactive substances (TBARS); experiment: Serum TBARS, Example 2 part one; settings: for TBARS level, serum: Ex.2 part one, 250 mg/d; for TBARS: serum
Description: Twenty-four hours after test dogs ran the last 15 mile endurance run, serum samples were taken to evaluate biomarkers for muscle damage and antioxidant status. Blood samples were taken 1) just prior to the beginning of the study; 2) 1 day prior to running the final 15 mile run on the 14th week; 3) 1 hour immediately following the 15 mile run; and 4) 24 hours following the final 15 mile run. After a blood sample was drawn, it was allowed to clot for 30 minutes at 25° C. before being centrifuged for 15 minutes at 2000 g at 4° C. Serum was aliquoted into 0.65 mL microcentrifuge tubes and stored at −80° C. until being assayed at the end of the study for creatine kinase, canine myoglobin, thiobarbituric acid reactive substances (TBARS), and total antioxidant capacity (TAC) using the commercially available kits described in Example 1.

Labrador Retrievers = experiment: Subjective recovery score (soreness, lameness) after long runs, Example 1; settings: Ex.1, 250 mg/d; observed 24 hr following each long run; either treatment
From the text: Each test dog wore an Actical activity monitor from Philips Respironics on a collar for the short higher intensity runs and also wore an Actical activity monitor for the weekly longer endurance runs. The activity data was downloaded into spread sheets along with each dogs identity. Twenty four hours after each long run during the 13 wk running program each of the dogs were scored by kennel staff for soreness or any type of lameness The exercise program was decreased in a tapering program during wk 11 and 12 to allow the dogs to rest for the final long run completed on wk 13. Pre-run serum samples from each test dog was taken 24 hr before the last endurance run. The heart rate and basal body temperature was determined for each test dog prior to the last long endurance run. A subjective recovery score was determined 24 hours after endurance run for each test dog once per week. The subjective recovery score (1-5; score of 1 for no soreness or stiffness in limbs and a score of 5 meant major soreness and stiffness) was based on ease of movement and soreness of each dog. The same subjective system was used 6 hr after the long 15 mile run and again at 24 and 48 hr to evaluate the recovery of the dogs as far as soreness and desire to move.

[2] = Food offered and food consumption (per day, per kg BW, per kg lean mass), Example 2 part one
Description: The performance dogs were weighed at the beginning of the study and at one week intervals until the end of part one. Feed consumption and refusals were determined daily by weighing and recording the amount offered or refused. The quantity of food provided to each dog on a daily basis was adjusted based on the goal of maintaining the dog's minimum body weight throughout the study. The consumption per kg of lean mass was determined by dividing the mean lean mass of each group into its mean daily food consumption value at the initial and then the final body scans.

[3] = Ex.2 part one, 250 mg/d, 14 week study
[4] = Ex.2 part one, 250 mg/d, week 1

C[N+](C)(C)C[C@H](O)CC(=O)[O-] [L-carnitine]
TBARS level, serum ([1]; post-run 1 hr, MDA): 16.45 µM | TBARS level, serum ([1]; prior to the 15 mile endurance run): 15.36 μM malondialdehyde (MDA) | TBARS ([1]; FEMALES, Baseline): 13.03 ± 1.29 μM MDA | TBARS ([1]; FEMALES, Post-Run 1 Hr): 17.44 ± 2.26 μM MDA | TBARS ([1]; FEMALES, Post-Run 24 Hr): 26.01 ± 3.09 μM MDA | TBARS ([1]; FEMALES, Pre-Run): 16.68 ± 2.16 μM MDA | TBARS ([1]; MALES, Baseline): 14.51 ± 1.38 μM MDA | TBARS ([1]; MALES, Post-Run 1 Hr): 15.46 ± 1.79 μM MDA | TBARS ([1]; MALES, Post-Run 24 Hr): 19.62 ± 2.38 μM MDA | TBARS ([1]; MALES, Pre-Run): 14.03 ± 2.24 μM MDA | TBARS ([1]; Whole Groups, Baseline): 13.77 ± 0.94 μM MDA | TBARS ([1]; Whole Groups, Post-Run 1 Hr, Post-Run 1 Hr): 16.45 ± 1.43 μM MDA | TBARS ([1]; Whole Groups, Post-Run 24 Hr, Post-Run 24 Hr): 22.81 ± 2.01 μM MDA | TBARS ([1]; Whole Groups, Pre-Run): 15.36 ± 1.55 μM MDA | Lameness or soreness after long runs (score 1-5) (Labrador Retrievers): no noticeable effects | Mean Food Intake Over 14 wk Duration/Lean Mass ([2]; Change, F): −2.46 g/d/kg Lean Mass | Mean Food Intake Over 14 wk Duration/Lean Mass ([2]; Change, M): −1.98 g/d/kg Lean Mass | Overall mean amount of food offered per day [2, 3]: 677 g/day | Overall mean food intake per day [2, 3]: 574 g/day | Mean food intake per kg lean mass ([2]; Ex.2 part one, 250 mg/d, Final body composition scan): 24.02 g/d/kg LM | Mean food intake per kg lean mass ([2]; Ex.2 part one, 250 mg/d, Initial body composition scan): 26.24 g/d/kg LM | Change in mean food intake per kg lean mass ([2]; Ex.2 part one, 250 mg/d, final minus initial over 14 wks): −2.22 g/d/kg LM | Amount of food consumed [2, 4]: 618.25 g/day | Food consumption per kg body weight [2, 4]: 20.96 g/d/kg BW | Intake of kcals of ME [2, 4]: 83.83 kcal/d/kg BW | Amount of food consumed ([2]; Ex.2 part one, 250 mg/d, week 4): 629.43 g/day | Mean Food Intake Over 14 wk Duration/Lean Mass ([2]; Final, F): 27.46 g/d/kg Lean Mass | Mean Food Intake Over 14 wk Duration/Lean Mass ([2]; Final, M): 20.58 g/d/kg Lean Mass | Mean Food Intake Over 14 wk Duration/Lean Mass ([2]; Initial, F): 29.92 g/d/kg Lean Mass | Mean Food Intake Over 14 wk Duration/Lean Mass ([2]; Initial, M): 22.56 g/d/kg Lean Mass | Daily Food Intake ([2]; Week 1): 618.25 ± 22.33 g | Daily Food Intake (ME) ([2]; Week 1): 83.83 ± 1.85 kcal ME/d/kg BW | Daily Food Intake per kg BW ([2]; Week 1): 20.96 ± 0.46 g/d/kg BW | Daily Food Intake ([2]; Week 2): 608.79 ± 22.8 g | Daily Food Intake (ME) ([2]; Week 2): 85.21 ± 2.22 kcal ME/d/kg BW | Daily Food Intake per kg BW ([2]; Week 2): 21.3 ± 0.55 g/d/kg BW | Daily Food Intake ([2]; Week 3): 600.54 ± 19.89 g | Daily Food Intake (ME) ([2]; Week 3): 82.87 ± 2.34 kcal ME/d/kg BW | Daily Food Intake per kg BW ([2]; Week 3): 20.72 ± 0.58 g/d/kg BW | Daily Food Intake ([2]; Week 4): 629.43 ± 21.4 g | Daily Food Intake (ME) ([2]; Week 4): 86.54 ± 2.08 kcal ME/d/kg BW | Daily Food Intake per kg BW ([2]; Week 4): 21.64 ± 0.52 g/d/kg BW | Daily Food Intake ([2]; Week 5): 597.07 ± 18.65 g | Daily Food Intake (ME) ([2]; Week 5): 81.86 ± 1.82 kcal ME/d/kg BW | Daily Food Intake per kg BW ([2]; Week 5): 20.47 ± 0.45 g/d/kg BW | Daily Food Intake ([2]; Week 6): 579.11 ± 21.17 g | Daily Food Intake (ME) ([2]; Week 6): 78.87 ± 2.06 kcal ME/d/kg BW | Daily Food Intake per kg BW ([2]; Week 6): 19.72 ± 0.51 g/d/kg BW | Daily Food Intake ([2]; Week 7): 584.5 ± 18.91 g | Daily Food Intake (ME) ([2]; Week 7): 79.61 ± 1.97 kcal ME/d/kg BW | Daily Food Intake per kg BW ([2]; Week 7): 19.91 ± 0.49 g/d/kg BW | Daily Food Intake ([2]; Week 8): 547.14 ± 20.91 g | Daily Food Intake (ME) ([2]; Week 8): 74.21 ± 2.16 kcal ME/d/kg BW | Daily Food Intake per kg BW ([2]; Week 8): 18.55 ± 0.54 g/d/kg BW | Daily Food Intake ([2]; Week 9): 602.79 ± 23.4 g | Daily Food Intake (ME) ([2]; Week 9): 81.55 ± 2.2 kcal ME/d/kg BW | Daily Food Intake per kg BW ([2]; Week 9): 20.39 ± 0.55 g/d/kg BW | Daily Food Intake ([2]; Week 10): 580.04 ± 21.88 g | Daily Food Intake (ME) ([2]; Week 10): 78.76 ± 2.25 kcal ME/d/kg BW | Daily Food Intake per kg BW ([2]; Week 10): 19.69 ± 0.56 g/d/kg BW | Daily Food Intake ([2]; Week 11): 543.89 ± 19.79 g | Daily Food Intake (ME) ([2]; Week 11): 73.79 ± 2.09 kcal ME/d/kg BW | Daily Food Intake per kg BW ([2]; Week 11): 18.45 ± 0.52 g/d/kg BW | Daily Food Intake ([2]; Week 12): 493.68 ± 19.06 g | Daily Food Intake (ME) ([2]; Week 12): 66.64 ± 1.71 kcal ME/d/kg BW | Daily Food Intake per kg BW ([2]; Week 12): 16.66 ± 0.43 g/d/kg BW | Daily Food Intake ([2]; Week 13): 511.82 ± 22.64 g | Daily Food Intake (ME) ([2]; Week 13): 68.71 ± 2.06 kcal ME/d/kg BW | Daily Food Intake per kg BW ([2]; Week 13): 17.18 ± 0.51 g/d/kg BW | Daily Food Intake ([2]; Week 14): 543.5 ± 26.43 g | Daily Food Intake (ME) ([2]; Week 14): 73.21 ± 2.75 kcal ME/d/kg BW | Daily Food Intake per kg BW ([2]; Week 14): 18.3 ± 0.69 g/d/kg BW
